Laboratory results reported in US8841310B2, “Combinations of a pyrimidine containing NNRTI with RT inhibitors” (Janssen R & D Ireland, priority 2003, dated 2014).
≈ marks a conversion by molar mass, not a printed value. Where “and” joins values, the source holds several entries; their conditions need not be identical. Equal entries are not always repeated. Where two headings read alike, the source gives them in different places.

Legend:
HIV-1 wild type = experiment: MT-4 cell-based antiviral assay (viral cytopathicity, tetrazolium); conditions: Human immunodeficiency virus 1, MT4, wild type virus
Protocol: (§1) Compound E-TMC278 was tested in a cell-based assay, using natural host cells of HIV. MT-4 cells (a cell line of human T cells) were infected with HIV-1 (wild type or mutants) and exposed to different concentrations of antiviral compound in the presence of 10% fetal calf serum. Cytotoxicity was determined in parallel with the antiviral activity so that the selectivity of the antiviral effect could be assessed. Active compounds have to penetrate the cell membrane in order to interfere with replication steps inside the cell.
(§2) After four days of incubation at 37° C., the viability of the HIV and mock-infected cells was assessed by an automated tetrazolium-based calorimetric assay. This method enabled the calculation of both the 50% inhibitory concentration for inhibition of viral cytopathicity (IC50), the IC90, and the 50% cytotoxic concentration (CC50). The ratio CC50/IC50, also called the selectivity index, is an indication of the specificity of the antiviral effect. Tested HIV strains included: Wild type (wt) HIV-1; a panel of single and double mutants, obtained by site-directed mutagenesis (SDM), and a panel of clinical isolates, selected for resistance against NNRTIs.

[1] = tested on: HIV-1 double mutant 100I + 103N; experiment: MT-4 cell-based antiviral assay, SDM mutant
Protocol: as §1, §2
(§3) A limited panel of HIV-1 mutants was constructed using site-directed mutagenesis (SDM) and homologous recombination techniques. […] Nevirapine (NVP) and efavirenz (EFV) were included as controls.

[2] = tested on: HIV-1 double mutant 101E + 103N; experiment: MT-4 cell-based antiviral assay, SDM mutant; conditions: Human immunodeficiency virus 1, MT4, 96 h
Protocol: as §1, §2, §3

[3] = tested on: HIV-1 double mutant 103N + 181C; experiment: MT-4 cell-based antiviral assay, SDM mutant
Protocol: as §1, §2, §3

[4] = tested on: HIV-1 double mutant 103N + 181I; experiment: MT-4 cell-based antiviral assay, SDM mutant; conditions: Human immunodeficiency virus 1, MT4, 96 h
Protocol: as §1, §2, §3

[5] = tested on: HIV-1 double mutant 227L + 106A; experiment: MT-4 cell-based antiviral assay, SDM mutant
Protocol: as §1, §2, §3

HIV-1 mutant 101E = experiment: MT-4 cell-based antiviral assay, SDM mutant; conditions: Human immunodeficiency virus 1, MT4
Protocol: as §1, §2, §3

HIV-1 mutant 103N = experiment: MT-4 cell-based antiviral assay, SDM mutant
Protocol: as §1, §2, §3

HIV-1 mutant 106A = experiment: MT-4 cell-based antiviral assay, SDM mutant; conditions: Human immunodeficiency virus 1, MT4
Protocol: as §1, §2, §3

HIV-1 mutant 108I = experiment: MT-4 cell-based antiviral assay, SDM mutant; conditions: Human immunodeficiency virus 1, MT4
Protocol: as §1, §2, §3

HIV-1 mutant 179D = experiment: MT-4 cell-based antiviral assay, SDM mutant; conditions: Human immunodeficiency virus 1, MT4
Protocol: as §1, §2, §3

HIV-1 mutant 181C = experiment: MT-4 cell-based antiviral assay, SDM mutant
Protocol: as §1, §2, §3

HIV-1 mutant 188C = experiment: MT-4 cell-based antiviral assay, SDM mutant; conditions: Human immunodeficiency virus 1, MT4
Protocol: as §1, §2, §3

HIV-1 mutant 188H = experiment: MT-4 cell-based antiviral assay, SDM mutant; conditions: Human immunodeficiency virus 1, MT4
Protocol: as §1, §2, §3

HIV-1 mutant 188L = experiment: MT-4 cell-based antiviral assay, SDM mutant
Protocol: as §1, §2, §3

HIV-1 mutant 190A = experiment: MT-4 cell-based antiviral assay, SDM mutant; conditions: Human immunodeficiency virus 1, MT4
Protocol: as §1, §2, §3

HIV-1 mutant 190S = experiment: MT-4 cell-based antiviral assay, SDM mutant; conditions: Human immunodeficiency virus 1, MT4
Protocol: as §1, §2, §3

HIV-1 mutant 225H = experiment: MT-4 cell-based antiviral assay, SDM mutant; conditions: Human immunodeficiency virus 1, MT4
Protocol: as §1, §2, §3

HIV-1 mutant 227C = experiment: MT-4 cell-based antiviral assay, SDM mutant
Protocol: as §1, §2, §3

HIV-1 mutant 227L = experiment: MT-4 cell-based antiviral assay, SDM mutant; conditions: Human immunodeficiency virus 1, MT4
Protocol: as §1, §2, §3

HIV-1 mutant 234I = experiment: MT-4 cell-based antiviral assay, SDM mutant; conditions: Human immunodeficiency virus 1, MT4
Protocol: as §1, §2, §3

HIV-1 mutant 236L = experiment: MT-4 cell-based antiviral assay, SDM mutant; conditions: Human immunodeficiency virus 1, MT4
Protocol: as §1, §2, §3

[6] = Phase I single oral dose trials: safety, tolerability, pharmacokinetics; type: in vivo, human; conditions: for Cmax / half-life / Tmax: human, plasma; for half-life / Tmax: male
Protocol: Oral doses of 12.5, 25, and 50 mg were formulated in PEG 400 and taken with a standard meal.
There was a time interval of about 14 days between each dosing session

wild type HIV-1 = experiment: Development of resistance in vitro, MT4 cells, high multiplicity of infection; type: cell-based; conditions: wild type HIV-1, >1 infectious virus per cell, all tested concentrations, total 30 days
From the text: (§4) Emerging virus was collected for pheno- and genotyping. Cultures without evidence of virus replication were further sub-cultivated in the presence of the same concentration of inhibitor for a total duration of 30 days (10 passages).

[7] = tested on: HIV-1 double resistant mutant K103N+Y181C; experiment: Development of resistance in vitro, starting from double mutant; type: cell-based
From the text: as §4

HIV-1 single mutant 103N = experiment: Development of resistance in vitro, starting from single mutant; type: cell-based; conditions: starting from 103N
From the text: as §4

[8] = tested on: HIV-1 single mutant Y181C; experiment: as above; type: cell-based
From the text: as §4

[9] = Cardiovascular and pulmonary safety in vivo; conditions: plasma levels covering and exceeding the targeted plasma levels in man
[10] = Cardiovascular and pulmonary safety in vitro; conditions: concentrations covering or exceeding the anti-viral concentration in vitro
[11] = Human immunodeficiency virus 1, MT4
[12] = Human immunodeficiency virus 1, MT4, read-out: IC50 value
[13] = single oral doses, healthy volunteers

What does the source list for `Cc1cc(/C=C/C#N)cc(C)c1Nc1ccnc(Nc2ccc(C#N)cc2)n1` [E-TMC278, (E)-4-[[4-[[4-(2-cyanoethenyl)-2,6-dimethylphenyl]-amino]-2-pyrimidinyl]-amino]-benzonitrile]?
IC90 (HIV-1 wild type): 1.3 nM and 0.00048 µg/mL; IC50 (HIV-1 wild type; read-out: IC50): 0.15 ng/mL (≈ 0.409 nM); IC90 [1, 11]: ~16000 pM; IC50 ([1]; Human immunodeficiency virus 1, MT4, 96 h, 100I + 103N, MT-4 cells): ~8000 pM; IC50 ([1]; Human immunodeficiency virus 1, MT4, read-out: IC50 value, Table 1, HIV RT mutation: 100I + 103N): 7900 pM; IC50 [2]: 500 pM; IC50 [3, 11]: 800 pM; IC50 [3, 12]: 1000 pM; IC50 [4]: 1000 pM; IC50 ([5]; Human immunodeficiency virus 1, MT4, 96 h): 1000 pM; IC50 [5, 12]: 1000 pM; IC50 (HIV-1 mutant 101E): 1600 pM; IC50 (HIV-1 mutant 103N; [11]): 300 pM; IC50 (HIV-1 mutant 103N; [12]): 300 pM; IC50 (HIV-1 mutant 106A): 200 pM; IC50 (HIV-1 mutant 108I): 300 pM; IC50 (HIV-1 mutant 179D): 600 pM; IC50 (HIV-1 mutant 181C; [11]): 1300 pM; IC50 (HIV-1 mutant 181C; [12]): 1300 pM; IC50 (HIV-1 mutant 188C): 100 pM; IC50 (HIV-1 mutant 188H): 200 pM; IC50 (HIV-1 mutant 188L; [11]): 2000 pM; IC50 (HIV-1 mutant 188L; [12]): 2000 pM; IC50 (HIV-1 mutant 190A): 300 pM; IC50 (HIV-1 mutant 190S): 100 pM; IC50 (HIV-1 mutant 225H): 300 pM; IC50 (HIV-1 mutant 227C; [11]): 2000 pM; IC50 (HIV-1 mutant 227C; [12]): 2000 pM; IC50 (HIV-1 mutant 227L): 300 pM; IC50 (HIV-1 mutant 234I): 300 pM; IC50 (HIV-1 mutant 236L): 300 pM; correlation coefficient for AUC0-48 hr (dose proportionality) ([6]; 12.5-200 mg): 0.9952; correlation coefficient for the 5 Cmax datapoints (dose proportionality) ([6]; 12.5-200 mg): 0.9897; Cmax ([6]; single oral dose 25 mg in PEG 400 with standard meal, healthy male volunteers): 149 ± 32 ng/mL; Cmax ([6]; single oral dose 50 mg in PEG 400 with standard meal, healthy male volunteers): 267 ± 27 ng/mL; Cmax ([6]; single oral dose 100 mg, healthy male subjects): 482 ± 121 ng/mL; Cmax ([6]; single oral dose 200 mg, healthy male subjects): 807 ± 207 ng/mL; half-life ([6]; across single oral doses, read-out: Half-life of plasma concentrations): 37 to 39 h; Tmax ([6]; single oral dose 12.5 mg): 4 h; half-life ([6]; single oral dose 12.5 mg, read-out: T1/2 (converted)): 37.1 h; Tmax ([6]; single oral dose 25 mg): 4 ± 1.3 h; half-life ([6]; single oral dose 25 mg, read-out: T1/2 (converted)): 38.7 h; Tmax ([6]; single oral dose 50 mg): 4 ± 1.3 h; half-life ([6]; single oral dose 50 mg, read-out: T1/2 (converted)): 45 ± 9 h; Tmax ([6]; single oral dose 100 mg): 4.3 ± 0.8 h; half-life ([6]; single oral dose 100 mg, read-out: T1/2 (converted)): 55 ± 18 h; Tmax ([6]; single oral dose 200 mg): 4.3 ± 0.8 h; Adverse effects [6, 13]: No relevant adverse effects; Tolerability [6, 13]: well tolerated; time to emergence of resistant virus (wild type HIV-1): > 30 days; emergence of resistance [7]: resistance did emerge at all tested concentrations; virus breakthrough (HIV-1 single mutant 103N; at 10 nM): did occur; virus breakthrough (HIV-1 single mutant 103N; at 40 and 200 nM): did not occur; virus breakthrough ([8]; at 10 nM): did occur; virus breakthrough ([8]; at 40 and 200 nM): did not occur; effect on cardiovascular and pulmonary parameters in vivo [9]: little or no effect; effect on cardiovascular and pulmonary parameters in vitro [10]: little or no effect
